Source: patent US20110081428A1, “Use of thioflavin-like compounds to increase life span and/or health span” (priority 2009, published 2011)

How the values were obtained:
Type in all cases: in vivo, Caenorhabditis elegans
CF1038 [daf-16(mu86)I] = assay: Lifespan assay, daf-16 mutant; conditions: 50 μM ThT, 100 μM curcumin
Protocol: Lifespan assays were performed as described previously. (McColl, G. et al. Pharmacogenetic analysis of lithium-induced delayed aging in Caenorhabditis elegans. J Biol Chem 283, 350-357 (2008). Briefly, the nematode growth media (NGM) plates were prepared under sterile conditions. 100 μL of concentrated stocks of each of the compounds used in this study were added onto a previously prepared NGM small plate (3 mL volume) immediately spread over the surface of the plate. The final concentrations quoted in the text assume an even distribution of compound throughout the 3 ml plate. The plates were then placed in a laminar flow hood at room temperature for 30 min and then 60 μL of a concentrated suspension of E. coli OP50 was spotted to form a circular lawn on the center of each plate. Thirty late L4 larvae growing at 20° C. were transferred to fresh NGM plates with FUdR (75 μM) in presence or absence of the specified compounds and incubated at 20° C. The first day of adulthood is Day 3 in survival curves. There was between-experiment variation in the magnitude of the lifespan extension observed with ThT which appeared to correlate with different suppliers and batches. ThT concentration should be optimized depending on batch and purity and stability of the compound. […]
Animals were scored as alive, dead or lost every other day. […]

[1] = test system: CL4176 (Aβ3-42 expressed in muscle); assay: Worm paralysis assay, Aβ model
Protocol: Scoring for paralysis was initiated 2 and 8 days after temperature upshift for CL4176 and AM140, respectively. […] For sensitivity to EtOH or levamisole resistance, CW152 gas-1 (fc21) X and ZZ26 unc-63(x26)I worms were picked into 0.4 M EtOH or 50 μM levamisole, respectively, equilibrated for 5 min, and scored for paralysis as described above. Treated and untreated worms were compared with an unpaired t-test (implemented in Prism 4, Graphpad™ Software, Inc., San Diego, Calif., USA).

[2] = test system: UNC-54 (paramyosin) in unc-54(e1157)I; assay: Paramyosin immunolocalization / sarcomere structure; conditions: 50 μM ThT, 24 h at 25° C.
Protocol: For fluorescent microscopy, TJ356 zIs356 IV [daf-16::daf-16-gfp+rol-6] or CF2189 Is001(skn-1::gfp+rol-6) were paralyzed with 1 mM levamisole mounted on 1% agarose pads and imaged using Olympus BX51 (60× objective) and HCImage software (Hamamatsu). For immunofluorescence, N2, […], CB1157 unc-54(e1157) or CL4176 dvIs27 [myo-3::Aβ(3 to 42)-let 3′UTR(pAF29); pRF4 (rol-6(su1006))] worms were treated for 24-36 h with or without 50 μM ThT at 25° C. After this period the worms were collected, rinsed, and fixed in 4% paraformaldehyde overnight. […] Paramyosin and perlecans were detected with primary monoclonal antibodies 5-23 and MH3 (developed by Henry Epstein and Robert H. Waterston and obtained from the Developmental Studies Hybridoma Bank developed under the auspices of the NICHD and maintained by The University of Iowa, Department of Biology, Iowa City, Iowa 52242) and AlexaFluor 633 goat anti-mouse (Molecular Probes) as secondary antibody. Soluble oligomers and Aβ peptide were detected with anti polyclonal All (Invitrogen) and 6E10 monoclonal (Covance) primary antibodies, respectively, with AlexaFluor 568 goat anti-rabbit and AlexaFluor 488 goat anti-mouse (Molecular Probes) as secondary antibodies. Images were processed and quantified by using Image Analyst MK II (Novato, Calif.).

chn-1 RNA = assay: Real time quantitative PCR, chn-1; conditions: 50 μM ThT, 3 and 6 days of treatment
Protocol: (§1) Twelve single adults from control or 50 μM ThT populations were picked after 3, 6 and 12 days of treatment into 5 μl of distilled water and flash frozen until extraction. Individual worms were extracted using the RNeasy Micro Kit, TissueLyser and QIAcube (Qiagen). Using the manufacturer's standard Animal Tissue protocol, each sample was homogenized in buffer RLT/Bme (Qiagen) on the TissueLyser (6 min total at 20 Hz). Samples, reagents and columns were then loaded into the QIAcube robot, and processed using the “RNeasy Micro—Animal tissues and cells—DNase digest” program. Each sample was then eluted in 14 μl of Nuclease-free water. cDNA templates for the Real Time PCR reactions were made using a combination of Message Sensor RT kit (Ambion's) and TaqMan PreAmp Master Mix (Applied Biosystems). The entire worm sample was added to the RT reaction and reversed transcribed at 50° C. for 20 min, using Message Sensor's “Two Step RT-PCR Protocol” (sample RT's were randomized). Then 2.5 μl of the cDNA sample was pre-amplified with a “4×Multiplex Primer Mix” for 14 cycles using TaqMan PreAmp master mix and protocol (ABI). Two modifications were made to ABI's protocol: 1. the reaction volume was reduced to 10 μl and 2. after pre-amplification, each cDNA sample was diluted 1:5 with 1XTE Buffer (Promega). cDNA samples were stored at −20° C. until needed. […]

HSF-1 RNA = assay: Real time quantitative PCR, hsf-1; conditions: 50 μM ThT, 3, 6 and 12 days of treatment
Protocol: as §1

Cc1ccc2c(c1)sc(-c1ccc(N(C)C)cc1)[n+]2C.[Cl-] [ThT, 4-(3,6-dimethyl-1,3-benzothiazol-3-ium-2-yl)-N,N-dimethylaniline chloride]
lifespan of daf-16(mu86) mutant (CF1038 [daf-16(mu86)I]): extended the lifespan
paralysis when treated after aggregation induction ([1]; CL4176, 50 μM ThT added 18 h after induction of aggregate formation): rescued the Aβ3-42 aggregation-induced paralysis
proportion of paralyzed worms ([1]; CL4176, 25° C., 50 μM ThT, 100 μM curcumin): significantly decrease the proportion of paralyzed worms
muscle sarcomere structure [2]: prevented the disruption of the muscle sarcomeres
chn-1 RNA levels (chn-1 RNA): up-regulated
HSF-1 RNA levels (HSF-1 RNA): no changes were detected
